Source: patent US20160347813A1, “GLUCAGON ANALOGUES” (Zealand Pharma A/S, priority 2011, published 2016)
Residues, ends and D or L forms follow the SMILES beside them.

target: T1, human Glucagon-R (Homo sapiens, UniProt P47871); experiment: Glucagon receptor efficacy assay (cAMP generation in HEK293 cells); assay type: cell-based; conditions: cAMP generation in HEK293 cells expressing Glucagon receptor
T1 construct: The DNA encoding the Glucagon-R or the GLP-1-R was amplified by PCR using primers encoding terminal restriction sites for subcloning; expressed in transfected cells
T1 sequence (P47871 26-477): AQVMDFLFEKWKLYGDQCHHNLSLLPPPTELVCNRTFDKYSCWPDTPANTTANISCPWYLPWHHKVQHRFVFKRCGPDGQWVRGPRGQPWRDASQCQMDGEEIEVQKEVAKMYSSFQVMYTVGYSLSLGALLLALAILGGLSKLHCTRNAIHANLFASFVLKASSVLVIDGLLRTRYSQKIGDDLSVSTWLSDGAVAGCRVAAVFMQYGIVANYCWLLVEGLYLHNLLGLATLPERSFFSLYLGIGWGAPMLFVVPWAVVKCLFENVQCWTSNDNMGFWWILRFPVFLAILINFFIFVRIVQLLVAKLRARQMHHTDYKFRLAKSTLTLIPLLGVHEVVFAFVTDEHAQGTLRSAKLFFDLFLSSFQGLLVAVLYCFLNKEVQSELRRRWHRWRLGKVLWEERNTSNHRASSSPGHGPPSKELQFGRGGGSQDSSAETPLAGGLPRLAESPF
From the text: (§1) The DNA encoding the Glucagon-R or the GLP-1-R was amplified by PCR using primers encoding terminal restriction sites for subcloning. The 5′-end primers additionally encoded a near Kozak consensus sequence to ensure efficient translation. The fidelity of the DNA encoding the Glucagon-R and the GLP-1-R was confirmed by DNA sequencing. The PCR products encoding the Glucagon-R or the GLP-1-R were subcloned into a mammalian expression vector containing a neomycin (G418) resistance marker. The mammalian expression vectors encoding the Glucagon-R or the GLP-1-R were transfected into HEK293 cells by a standard calcium phosphate transfection method. 48 hr after transfection cells were seeded for limited dilution cloning and selected with 1 mg/ml G418 in the culture medium. Three weeks later 12 surviving colonies of Glucagon-R and GLP-1-R expressing cells were picked, propagated and tested in the Glucagon-R and GLP-1-R efficacy assays as described below. One Glucagon-R expressing clone and one GLP-1-R expressing clone were chosen for compound profiling.
(§2) On the day of analysis, growth medium was removed and the cells washed once with 200 μl Tyrode buffer. Cells were incubated in 100 μl Tyrode buffer containing increasing concentrations of test peptides, 100 μM IBMX, and 6 mM glucose for up 15 min at 37° C. The reaction was stopped by addition of 25 μl 0.5 M HCl and incubated on ice for 60 min. The cAMP content was estimated using the FlashPlate® cAMP kit from Perkin-Elmer according to manufacturer instructions. EC50 and relative efficacies compared to reference compounds (glucagon and GLP-1) were estimated by computer aided curve fitting.

EC50	Structure (SMILES)
0.06 nM	CCCCCCCCCCCCCCCC(=O)N[C@@H](CCC(=O)NCCCC[C@H](NC(=O)[C@H](CCC(=O)O)NC(=O)[C@H](CC(=O)O)NC(=O)[C@H](CC(C)C)NC(=O)[C@H](Cc1ccc(O)cc1)NC(=O)[C@H](CCCNC(=N)N)NC(=O)[C@H](CO)NC(=O)[C@H](Cc1ccc(O)cc1)NC(=O)[C@H](CC(=O)O)NC(=O)[C@H](CO)NC(=O)[C@@H](NC(=O)[C@H](Cc1ccccc1)NC(=O)[C@@H](NC(=O)CNC(=O)[C@H](CCC(N)=O)NC(=O)[C@H](CO)NC(=O)[C@@H](N)Cc1c[nH]cn1)[C@@H](C)O)[C@@H](C)O)C(=O)N[C@@H](CCCNC(=N)N)C(=O)N[C@@H](C)C(=O)N[C@@H](CCCNC(=N)N)C(=O)N[C@@H](CC(=O)O)C(=O)N[C@@H](Cc1ccccc1)C(=O)N[C@H](C(=O)N[C@@H](CCC(=O)O)C(=O)N[C@@H](Cc1c[nH]c2ccccc12)C(=O)N[C@@H](CC(C)C)C(=O)N[C@@H](CC(C)C)C(=O)N[C@@H](CO)C(=O)N[C@@H](C)C(N)=O)[C@@H](C)CC)C(=O)O [Compound 7] (HELM PEPTIDE1{H.S.Q.G.T.F.T.S.D.Y.S.R.Y.L.D.E.K.R.A.R.D.F.I.E.W.L.L.S.A.[am]}|PEPTIDE2{[CCCCCCCCCCCCCCCC(=O)[*:2]].[gGlu]}$PEPTIDE1,PEPTIDE2,17:R3-2:R2$$$V2.0)
0.06 nM	CCCCCCCCCCCCCCCC(=O)N[C@@H](CCC(=O)NCCCC[C@H](NC(=O)[C@H](CCC(=O)O)NC(=O)[C@H](CC(=O)O)NC(=O)[C@H](CC(C)C)NC(=O)[C@H](Cc1ccc(O)cc1)NC(=O)[C@H](CCCNC(=N)N)NC(=O)[C@H](CO)NC(=O)[C@H](Cc1ccc(O)cc1)NC(=O)[C@H](CC(=O)O)NC(=O)[C@H](CO)NC(=O)[C@@H](NC(=O)[C@H](Cc1ccccc1)NC(=O)[C@@H](NC(=O)CNC(=O)[C@H](Cc1c[nH]cn1)NC(=O)[C@H](CO)NC(=O)[C@@H](N)Cc1c[nH]cn1)[C@@H](C)O)[C@@H](C)O)C(=O)N[C@@H](CCCNC(=N)N)C(=O)N[C@@H](C)C(=O)N[C@@H](CCCNC(=N)N)C(=O)N[C@@H](CC(=O)O)C(=O)N[C@@H](Cc1ccccc1)C(=O)N[C@H](C(=O)N[C@@H](CCC(=O)O)C(=O)N[C@@H](Cc1c[nH]c2ccccc12)C(=O)N[C@@H](CC(C)C)C(=O)N[C@@H](CC(C)C)C(=O)N[C@@H](CO)C(=O)N[C@@H](C)C(N)=O)[C@@H](C)CC)C(=O)O [Compound 10] (HELM PEPTIDE1{H.S.H.G.T.F.T.S.D.Y.S.R.Y.L.D.E.K.R.A.R.D.F.I.E.W.L.L.S.A.[am]}|PEPTIDE2{[CCCCCCCCCCCCCCCC(=O)[*:2]].[gGlu]}$PEPTIDE1,PEPTIDE2,17:R3-2:R2$$$V2.0)
0.09 nM	CCCCCCCCCCCCCCCC(=O)N[C@@H](CCC(=O)NCCCC[C@H](NC(=O)[C@H](CCC(=O)O)NC(=O)[C@H](CC(=O)O)NC(=O)[C@H](CC(C)C)NC(=O)[C@H](Cc1ccc(O)cc1)NC(=O)[C@H](CCCNC(=N)N)NC(=O)[C@H](CO)NC(=O)[C@H](Cc1ccc(O)cc1)NC(=O)[C@H](CC(=O)O)NC(=O)[C@H](CO)NC(=O)[C@@H](NC(=O)[C@H](Cc1ccccc1)NC(=O)[C@@H](NC(=O)CNC(=O)[C@H](Cc1c[nH]cn1)NC(=O)[C@@H](CO)NC(=O)[C@@H](N)Cc1c[nH]cn1)[C@@H](C)O)[C@@H](C)O)C(=O)N[C@@H](CCCNC(=N)N)C(=O)N[C@@H](C)C(=O)N[C@@H](CCCNC(=N)N)C(=O)N[C@@H](CC(=O)O)C(=O)N[C@@H](Cc1ccccc1)C(=O)N[C@H](C(=O)N[C@@H](CCC(=O)O)C(=O)N[C@@H](Cc1c[nH]c2ccccc12)C(=O)N[C@@H](CC(C)C)C(=O)N[C@@H](CC(C)C)C(=O)N[C@@H](CO)C(=O)N[C@@H](C)C(N)=O)[C@@H](C)CC)C(=O)O [Compound 11] (HELM PEPTIDE1{H.[dS].H.G.T.F.T.S.D.Y.S.R.Y.L.D.E.K.R.A.R.D.F.I.E.W.L.L.S.A.[am]}|PEPTIDE2{[CCCCCCCCCCCCCCCC(=O)[*:2]].[gGlu]}$PEPTIDE1,PEPTIDE2,17:R3-2:R2$$$V2.0)
0.09 nM	CCCCCCCCCCCCCCCC(=O)N[C@@H](CCC(=O)NCCCC[C@H](NC(=O)[C@H](CCC(=O)O)NC(=O)[C@H](CC(=O)O)NC(=O)[C@H](CC(C)C)NC(=O)[C@H](Cc1ccc(O)cc1)NC(=O)[C@H](CCCCN)NC(=O)[C@H](CO)NC(=O)[C@H](Cc1ccc(O)cc1)NC(=O)[C@H](CC(=O)O)NC(=O)[C@H](CO)NC(=O)[C@@H](NC(=O)[C@H](Cc1ccccc1)NC(=O)[C@@H](NC(=O)CNC(=O)[C@H](Cc1c[nH]cn1)NC(=O)[C@H](CO)NC(=O)[C@@H](N)Cc1c[nH]cn1)[C@@H](C)O)[C@@H](C)O)C(=O)N[C@@H](CCCNC(=N)N)C(=O)N[C@@H](C)C(=O)N[C@@H](CCCCN)C(=O)N[C@@H](CC(=O)O)C(=O)N[C@@H](Cc1ccccc1)C(=O)N[C@H](C(=O)N[C@@H](CCC(=O)O)C(=O)N[C@@H](Cc1c[nH]c2ccccc12)C(=O)N[C@@H](CC(C)C)C(=O)N[C@@H](CC(C)C)C(=O)N[C@@H](CO)C(=O)N[C@@H](C)C(N)=O)[C@@H](C)CC)C(=O)O [Compound 18] (HELM PEPTIDE1{H.S.H.G.T.F.T.S.D.Y.S.K.Y.L.D.E.K.R.A.K.D.F.I.E.W.L.L.S.A.[am]}|PEPTIDE2{[CCCCCCCCCCCCCCCC(=O)[*:2]].[gGlu]}$PEPTIDE1,PEPTIDE2,17:R3-2:R2$$$V2.0)

target: T2, human GLP-1-R (Homo sapiens, UniProt P43220); experiment: GLP-1 receptor efficacy assay (cAMP generation in HEK293 cells); assay type: cell-based; conditions: cAMP generation in HEK293 cells expressing GLP-1 receptor
T2 construct: The DNA encoding the Glucagon-R or the GLP-1-R was amplified by PCR using primers encoding terminal restriction sites for subcloning; expressed in transfected cells
T2 sequence (P43220 24-463): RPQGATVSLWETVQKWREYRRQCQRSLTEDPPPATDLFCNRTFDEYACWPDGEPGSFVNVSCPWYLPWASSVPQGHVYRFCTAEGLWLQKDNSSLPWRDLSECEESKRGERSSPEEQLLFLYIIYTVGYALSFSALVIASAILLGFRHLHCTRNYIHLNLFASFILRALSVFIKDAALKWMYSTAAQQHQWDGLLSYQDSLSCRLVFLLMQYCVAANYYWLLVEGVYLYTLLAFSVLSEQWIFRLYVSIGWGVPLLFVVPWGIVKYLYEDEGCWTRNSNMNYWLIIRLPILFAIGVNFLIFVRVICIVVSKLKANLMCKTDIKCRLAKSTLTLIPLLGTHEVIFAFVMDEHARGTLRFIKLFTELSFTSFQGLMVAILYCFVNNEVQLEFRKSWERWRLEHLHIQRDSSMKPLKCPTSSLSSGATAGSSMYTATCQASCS
From the text: as §1, §2

EC50	Structure (SMILES)
0.06 nM	CCCCCCCCCCCCCCCC(=O)N[C@@H](CCC(=O)NCCCC[C@H](NC(=O)[C@H](CCC(=O)O)NC(=O)[C@H](CC(=O)O)NC(=O)[C@H](CC(C)C)NC(=O)[C@H](Cc1ccc(O)cc1)NC(=O)[C@H](CCCNC(=N)N)NC(=O)[C@H](CO)NC(=O)[C@H](Cc1ccc(O)cc1)NC(=O)[C@H](CC(=O)O)NC(=O)[C@H](CO)NC(=O)[C@@H](NC(=O)[C@H](Cc1ccccc1)NC(=O)[C@@H](NC(=O)CNC(=O)[C@H](CCC(N)=O)NC(=O)[C@H](CO)NC(=O)[C@@H](N)Cc1c[nH]cn1)[C@@H](C)O)[C@@H](C)O)C(=O)N[C@@H](CCCNC(=N)N)C(=O)N[C@@H](C)C(=O)N[C@@H](CCCNC(=N)N)C(=O)N[C@@H](CC(=O)O)C(=O)N[C@@H](Cc1ccccc1)C(=O)N[C@H](C(=O)N[C@@H](CCC(=O)O)C(=O)N[C@@H](Cc1c[nH]c2ccccc12)C(=O)N[C@@H](CC(C)C)C(=O)N[C@@H](CC(C)C)C(=O)N[C@@H](CO)C(=O)N[C@@H](C)C(N)=O)[C@@H](C)CC)C(=O)O [Compound 7] (HELM PEPTIDE1{H.S.Q.G.T.F.T.S.D.Y.S.R.Y.L.D.E.K.R.A.R.D.F.I.E.W.L.L.S.A.[am]}|PEPTIDE2{[CCCCCCCCCCCCCCCC(=O)[*:2]].[gGlu]}$PEPTIDE1,PEPTIDE2,17:R3-2:R2$$$V2.0)
0.07 nM	CCCCCCCCCCCCCCCC(=O)N[C@@H](CCC(=O)NCCCC[C@H](NC(=O)[C@H](CCC(=O)O)NC(=O)[C@H](CC(=O)O)NC(=O)[C@H](CC(C)C)NC(=O)[C@H](Cc1ccc(O)cc1)NC(=O)[C@H](CCCCN)NC(=O)[C@H](CO)NC(=O)[C@H](Cc1ccc(O)cc1)NC(=O)[C@H](CC(=O)O)NC(=O)[C@H](CO)NC(=O)[C@@H](NC(=O)[C@H](Cc1ccccc1)NC(=O)[C@@H](NC(=O)CNC(=O)[C@H](CCC(N)=O)NC(=O)[C@@H](CO)NC(=O)[C@@H](N)Cc1c[nH]cn1)[C@@H](C)O)[C@@H](C)O)C(=O)N[C@@H](CCCNC(=N)N)C(=O)N[C@@H](C)C(=O)N[C@@H](CCCCN)C(=O)N[C@@H](CC(=O)O)C(=O)N[C@@H](Cc1ccccc1)C(=O)N[C@H](C(=O)N[C@@H](CCC(=O)O)C(=O)N[C@@H](Cc1c[nH]c2ccccc12)C(=O)N[C@@H](CC(C)C)C(=O)N[C@@H](CC(C)C)C(=O)N[C@@H](CO)C(=O)N[C@@H](C)C(N)=O)[C@@H](C)CC)C(=O)O [Compound 17] (HELM PEPTIDE1{H.[dS].Q.G.T.F.T.S.D.Y.S.K.Y.L.D.E.K.R.A.K.D.F.I.E.W.L.L.S.A.[am]}|PEPTIDE2{[CCCCCCCCCCCCCCCC(=O)[*:2]].[gGlu]}$PEPTIDE1,PEPTIDE2,17:R3-2:R2$$$V2.0)
